Measurements: patent US6737383B1, “Herbicidal oxadiazolidines” (priority 1999, dated 2004)

How the values were obtained:
[1] = system: pigweed; test: Test B pre/postemergence pigweed; type: in vivo, Amaranthus retroflexus
How it was run: (§1)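 Herbicidal effect was estimated by eye on a ten-point control scale after plants spent twelve to sixteen days in a greenhouse following soil or foliar treatment. Foliar sprays targeted plants at one to four leaves; all doses were formulated in a non-phytotoxic solvent with surfactant.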

[2] = system: bamyardgrass; test: Test B flood test barnyardgrass; type: in vivo, Echinochloa crus-galli
How it was run: (§2)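 Read-out is a visual response score from 0 (no effect) to 10 (complete control), assigned by comparison with untreated controls. Treatment was applied at the 2-leaf stage, and plants stayed in the greenhouse for twelve to sixteen days before scoring.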

[3] = system: purple nutsedge; test: Test B pre/postemergence purple nutsedge; type: in vivo, Cyperus rotundus
How it was run: as §1

[4] = system: velvetleaf; test: Test B pre/postemergence velvetleaf; type: in vivo, Abutilon theophrasti
How it was run: as §1

[5] = system: bedstraw; test: Test B pre/postemergence bedstraw; type: in vivo, Galium aparine
How it was run: as §1

[6] = system: cocklebur; test: Test B pre/postemergence cocklebur; type: in vivo, Xanthium strumarium
How it was run: as §1

[7] = system: corn; test: Test B pre/postemergence corn; type: in vivo, Zea mays
How it was run: as §1

[8] = system: surinam grass; test: Test B pre/postemergence surinam grass; type: in vivo, Brachiaria decumbens
How it was run: as §1

[9] = system: smallflower flatsedge; test: Test B flood test smallflower flatsedge; type: in vivo, Cyperus difformis
How it was run: as §2

[10] = system: giant foxtail; test: Test B pre/postemergence giant foxtail; type: in vivo, Setaria faberii
How it was run: as §1

[11] = system: morningglory; test: Test B pre/postemergence morningglory; type: in vivo, Ipomoea hederacea
How it was run: as §1

[12] = system: sugar beet; test: Test B pre/postemergence sugar beet; type: in vivo, Beta vulgaris
How it was run: as §1

[13] = system: rape; test: Test B pre/postemergence rape; type: in vivo, Brassica napus
How it was run: as §1

[14] = system: duck salad; test: Test B flood test duck salad; type: in vivo, Heteranthera limosa
How it was run: as §2

[15] = system: soybean; test: Test B pre/postemergence soybean; type: in vivo, Glycine max
How it was run: as §1

[16] = system: blackgrass; test: Test B pre/postemergence blackgrass; type: in vivo, Alopecurus myosuroides
How it was run: as §1

[17] = Preemergence, Rate 62 g/ha, scale of 0 to 10 where 0 is no effect and 10 is complete control
[18] = Preemergence, Rate 125 g/ha, 0 is no effect, 10 is complete control
[19] = Preemergence, Rate 250 g/ha, scale 0 to 10, 0 is no effect, 10 is complete control
[20] = Preemergence, Rate 500 g/ha, scale of 0 to 10 where 0 is no effect and 10 is complete control
[21] = Rate 62 g/ha, Postemergence, scale of 0 to 10 where 0 is no effect and 10 is complete control
[22] = Rate 125 g/ha, Postemergence, scale 0 to 10
[23] = Rate 500 g/ha, Postemergence, scale 0 to 10
[24] = Rate 62 g/ha, headed Pre-emergence (flood test species), scale 0 to 10 (0 no effect, 10 complete control)
[25] = Rate 125 g/ha, Pre-emergence, flood test species, scale 0 to 10 where 0 is no effect and 10 is complete control
[26] = Rate 250 g/ha, Pre-emergence, flood-test species, scale 0 to 10, 0 is no effect, 10 is complete control
[27] = Rate 500 g/ha, headed Pre-emergence (flood test species), scale 0 to 10 (0 no effect, 10 complete control)

## CSc1ccc(N(C(=O)n2oc(=O)n(-c3ccccc3C)c2=O)C(C)C)cc1 [Compound 205]
[1]; [17]
  Redroot pigweed plant response rating: 0
[1]; [18]
  Redroot pigweed plant response rating (0 to 10 scale): 0
[1]; [19]
  Redroot pigweed plant response rating: 0
[1]; [20]
  Plant response rating, Redroot pigweed: 0
[1]; [21]
  Redroot pigweed plant response rating: 0
[1]; [22]
  Redroot pigweed plant response rating: 0
[1]; Rate 250 g/ha, Postemergence
  Plant response rating (0 to 10; 0 is no effect, 10 is complete control), Redroot pigweed: 0
[1]; [23]
  Redroot pigweed plant response rating: 0
[2]; [24]
  Barnyardgrass plant response rating: 0
[2]; [25]
  Barnyardgrass plant response rating: 0
[2]; [26]
  Barnyardgrass plant response rating: 0
[2]; [27]
  Plant response rating, Barnyardgrass: 0
[3]; [19]
  Nutsedge plant response rating: 0
[3]; [22]
  Nutsedge plant response rating: 0
[3]; [23]
  Nutsedge plant response rating: 0
[4]; [17]
  Velvetleaf plant response rating: 0
[4]; [19]
  Velvetleaf plant response rating: 0
[4]; [20]
  Plant response rating, Velvetleaf: 0
[4]; [21]
  Velvetleaf plant response rating: 0
[4]; [22]
  Velvetleaf plant response rating: 0
[4]; Rate 250 g/ha, Postemergence
  Plant response rating (0 to 10; 0 is no effect, 10 is complete control), Velvetleaf: 0
[5]; [17]
  Bedstraw plant response rating: 0
[5]; [18]
  Bedstraw plant response rating (0 to 10 scale): 0
[5]; [19]
  Bedstraw plant response rating: 0
[5]; [20]
  Plant response rating, Bedstraw: 0
[5]; [21]
  Bedstraw plant response rating: 0
[5]; [22]
  Bedstraw plant response rating: 0
[5]; Rate 250 g/ha, Postemergence
  Plant response rating (0 to 10; 0 is no effect, 10 is complete control), Bedstraw: 0
[5]; [23]
  Bedstraw plant response rating: 0
[6]; [17]
  Cocklebur plant response rating: 0
[6]; [18]
  Cocklebur plant response rating (0 to 10 scale): 0
[6]; [19]
  Cocklebur plant response rating: 0
[6]; [20]
  Plant response rating, Cocklebur: 0
[6]; [21]
  Cocklebur plant response rating: 0
[6]; [22]
  Cocklebur plant response rating: 1
[6]; Rate 250 g/ha, Postemergence
  Plant response rating (0 to 10; 0 is no effect, 10 is complete control), Cocklebur: 1
[6]; [23]
  Cocklebur plant response rating: 2
[7]; [17]
  Corn plant response rating: 0
[7]; [18]
  Corn plant response rating (0 to 10 scale): 0
[7]; [19]
  Corn plant response rating: 0
[7]; [20]
  Plant response rating, Corn: 0
[7]; [21]
  Corn plant response rating: 0
[7]; [22]
  Corn plant response rating: 0
[7]; Rate 250 g/ha, Postemergence
  Plant response rating (0 to 10; 0 is no effect, 10 is complete control), Corn: 0
[7]; [23]
  Corn plant response rating: 0
[8]; [17]
  B. signalgrass plant response rating: 0
[8]; [18]
  B. signalgrass plant response rating (0 to 10 scale): 0
[8]; [19]
  B. signalgrass plant response rating: 0
[8]; [20]
  Plant response rating, B. signalgrass: 0
[8]; [21]
  B. signalgrass plant response rating: 0
[8]; Rate 125 g/ha, Postemergence, scale 0 (no effect) to 10 (complete control)
  B. signalgrass plant response rating: 0
[8]; Rate 250 g/ha, Postemergence, scale 0 to 10, 0 is no effect, 10 is complete control
  Plant response rating, B. signalgrass: 0
[8]; Rate 500 g/ha, Postemergence, scale 0 to 10, 0 no effect, 10 complete control
  B. signalgrass plant response rating: 0
[9]; [24]
  S. Flatsedge plant response rating: 0
[9]; [25]
  S. Flatsedge plant response rating: 0
[9]; [26]
  S. Flatsedge plant response rating: 0
[9]; Rate 500 g/ha, Pre-emergence, flood test species, scale 0 to 10 (0 no effect, 10 complete control)
  S. Flatsedge plant response rating: 0
[10]; [17]
  Giant foxtail plant response rating: 0
[10]; [18]
  Giant foxtail plant response rating (0 to 10 scale): 0
[10]; [19]
  Giant foxtail plant response rating: 0
[10]; [20]
  Plant response rating, Giant foxtail: 3
[10]; [21]
  Giant foxtail plant response rating: 0
[10]; [22]
  Giant foxtail plant response rating: 0
[10]; Rate 250 g/ha, Postemergence
  Plant response rating (0 to 10; 0 is no effect, 10 is complete control), Giant foxtail: 0
[10]; [23]
  Giant foxtail plant response rating: 0
[11]; [17]
  Morningglory plant response rating: 0
[11]; [18]
  Morningglory plant response rating (0 to 10 scale): 0
[11]; [19]
  Morningglory plant response rating: 0
[11]; [20]
  Plant response rating, Morningglory: 0
[11]; [21]
  Morningglory plant response rating: 0
[11]; [22]
  Morningglory plant response rating: 0
[11]; Rate 250 g/ha, Postemergence
  Plant response rating (0 to 10; 0 is no effect, 10 is complete control), Morningglory: 1
[11]; [23]
  Morningglory plant response rating: 2
[12]; [17]
  Sugarbeets plant response rating: 0
[12]; [18]
  Sugarbeets plant response rating (0 to 10 scale): 0
[12]; [19]
  Sugarbeets plant response rating: 0
[12]; [20]
  Plant response rating, Sugarbeets: 0
[12]; [21]
  Sugarbeets plant response rating: 0
[12]; [22]
  Sugarbeets plant response rating: 0
[12]; Rate 250 g/ha, Postemergence
  Plant response rating (0 to 10; 0 is no effect, 10 is complete control), Sugarbeets: 0
[12]; [23]
  Sugarbeets plant response rating: 0
[13]; [17]
  Rape plant response rating: 0
[13]; [18]
  Rape plant response rating (0 to 10 scale): 0
[13]; [19]
  Rape plant response rating: 0
[13]; [20]
  Plant response rating, Rape: 0
[13]; [21]
  Rape plant response rating: 0
[13]; [22]
  Rape plant response rating: 0
[13]; Rate 250 g/ha, Postemergence
  Plant response rating (0 to 10; 0 is no effect, 10 is complete control), Rape: 0
[13]; [23]
  Rape plant response rating: 0
[14]; [24]
  Ducksalad plant response rating: 0
[14]; [25]
  Ducksalad plant response rating: 0
[14]; [26]
  Ducksalad plant response rating: 0
[14]; [27]
  Plant response rating, Ducksalad: 0
[15]; [17]
  Soybean plant response rating: 0
[15]; [18]
  Soybean plant response rating (0 to 10 scale): 0
[15]; [19]
  Soybean plant response rating: 0
[15]; [20]
  Plant response rating, Soybean: 0
[15]; [21]
  Soybean plant response rating: 0
[15]; [22]
  Soybean plant response rating: 1
[15]; Rate 250 g/ha, Postemergence
  Plant response rating (0 to 10; 0 is no effect, 10 is complete control), Soybean: 2
[15]; [23]
  Soybean plant response rating: 2
[16]; [17]
  Blackgrass plant response rating: 0
[16]; [18]
  Blackgrass plant response rating (0 to 10 scale): 0
[16]; [19]
  Blackgrass plant response rating: 0
[16]; [20]
  Plant response rating, Blackgrass: 0
[16]; [21]
  Blackgrass plant response rating: 0
[16]; [22]
  Blackgrass plant response rating: 0
[16]; Rate 250 g/ha, Postemergence
  Plant response rating (0 to 10; 0 is no effect, 10 is complete control), Blackgrass: 0
[16]; [23]
  Blackgrass plant response rating: 0
